Measured values as given in paper PMC6938345, “Inhibition of complement activation, myeloperoxidase, NET formation and oxidant activity by PIC1 peptide variants” (PLoS ONE, 2019).

Tests used:
[1] = tested on: antibody-initiated complement activation (type O sera + type AB red blood cells); experiment: ABO incompatibility hemolytic assay (CH50-type, ex vivo); type: cell-based, human; details: peptides 1.8 mM
Protocol: (§1) For hemolytic complement assays, human red blood cells (RBCs) from type AB donors were purified, washed and standardized to 1 × 10^9 cells/ml, as previously described. Human sera from type O donors at a 20% final concentration was combined with 1 mM PIC1 or sarcosine variant peptides and the volume was brought up to 0.15 ml with GVBS^++ and 0.5 ml RBCs. For factor B-depleted sera hemolytic assays, a final of 0.005% factor B depleted sera was incubated with 1 mM PIC1 or sarcosine variant peptides with 0.1 ml antibody-sensitized sheep red blood cells (EA) in a final volume of 0.75 ml GVBS^++. The samples were incubated for 1 hour at 37 °C and then 1.0 ml of GVBS^-—was added to the factor B-depleted samples to stop the reaction. The samples were spun at 3,000 rpm for 5 minutes and the supernatant was collected and read at 412 nm. Values are represented as a percent of the positive control, which consists of human O sera and AB red blood cells in GVBS^++ buffer.
In order to evaluate the extent to which the peptide variants inhibit antibody-initiated complement activation, we tested them in two hemolytic assays including an ABO incompatibility ex vivo assay (Fig 1A) and a classical pathway CH50-type assay in factor B-depleted sera (Fig 1B). In the ABO incompatibility hemolytic assay, purified erythrocytes from a ‘type AB+’ donor are incubated with sera from a ‘type O’ subject containing anti-A and anti-B antibodies; peptides were tested at 1.8 mM. […] We then performed a CH50-type hemolytic assay, with antibody-sensitized sheep erythrocytes, isolating the classical pathway by utilizing factor B-depleted sera; peptides were tested at 0.4 mM.
Fig 1 Sarcosine variant inhibition of complement activation in hemolytic assays and C1q binding. A) Inhibition of ABO incompatibility hemolysis in a CH50-type assay. Peptides are at a final concentration of 1.8 mM. […] Data are the means of n = 4 independent experiments + SEM. B) Inhibition of classical complement pathway-mediated hemolysis in factor B-depleted sera in a CH50-type assay. Peptides are at a final concentration of 0.4 mM. Data are the means of n = 4 independent experiments + SEM. C) Binding of increasing concentrations of sarcosine variants to purified C1q in an ELISA-type assay. Data are the means of n = 3 independent experiments ± SEM. D) Half-maximal binding concentrations were calculated for each peptide’s binding curve.

[2] = tested on: classical complement pathway (factor B-depleted human sera + antibody-sensitized sheep erythrocytes); experiment: Classical pathway CH50-type hemolytic assay in factor B-depleted sera; type: cell-based; details: peptides 0.4 mM, P < 0.001
Protocol: as §1, with “buffer. […]” for “buffer.”
Fig 1 Sarcosine variant inhibition of complement activation in hemolytic assays and C1q binding. […] D) Half-maximal binding concentrations were calculated for each peptide’s binding curve.

[3] = target: T1, Myeloperoxidase (MPO) (Homo sapiens, UniProt P05164); experiment: MPO activity assay (TMB-based); type: biochemical; details: range of concentrations
T1 construct: purchased Lee BioSolutions (Maryland Heights, MO)
T1 sequence (P05164 49-745): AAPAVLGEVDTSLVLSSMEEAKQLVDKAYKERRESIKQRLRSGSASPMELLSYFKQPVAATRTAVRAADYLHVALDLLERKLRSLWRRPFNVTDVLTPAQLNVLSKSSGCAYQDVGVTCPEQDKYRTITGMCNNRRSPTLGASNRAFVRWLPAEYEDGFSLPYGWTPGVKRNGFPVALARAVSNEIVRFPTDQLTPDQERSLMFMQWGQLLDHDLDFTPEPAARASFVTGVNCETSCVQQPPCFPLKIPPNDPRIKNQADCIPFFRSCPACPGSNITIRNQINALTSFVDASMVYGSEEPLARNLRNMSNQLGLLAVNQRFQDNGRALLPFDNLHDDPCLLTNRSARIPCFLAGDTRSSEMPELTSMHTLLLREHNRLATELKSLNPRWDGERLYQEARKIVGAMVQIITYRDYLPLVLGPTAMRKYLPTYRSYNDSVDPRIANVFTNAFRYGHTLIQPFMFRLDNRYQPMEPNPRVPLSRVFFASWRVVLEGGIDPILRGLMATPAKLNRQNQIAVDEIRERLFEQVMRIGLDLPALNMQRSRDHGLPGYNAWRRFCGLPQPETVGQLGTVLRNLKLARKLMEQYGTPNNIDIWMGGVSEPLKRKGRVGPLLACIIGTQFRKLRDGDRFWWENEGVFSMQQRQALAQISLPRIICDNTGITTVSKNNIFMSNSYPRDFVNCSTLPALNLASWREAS
Protocol: PIC1 and sarcosine variants were diluted to 25 mg/ml and then serially titrated in a 96 well plate at a volume of 0.02 ml. Myeloperoxidase (MPO) was diluted to 20 μg/ml and 0.02 ml was added to the titrated peptides. TMB (3,3′,5,5′-tetramethylbenzidine) (0.1 ml) was added to each well for 2 minutes, followed by 0.1 ml of 2.5 N H2SO4 for another 2 minutes, and then read on a 96 well plate reader (BioTek) at 450 nm.
In this assay, the variants were tested for MPO inhibition over a range of concentrations (Fig 2A). Strong MPO inhibition was found for all variants with the exception of the no-cysteine variant (C9,10).

[4] = target: T2, MPO heme ring (Homo sapiens, UniProt P05164); experiment: MPO heme ring oxidative degradation; type: biochemical; details: peptides 3.0 mM, H2O2, absorbance 300-550 nm
T2 construct: purchased Lee BioSolutions (Maryland Heights, MO)
T2 sequence (P05164 49-745): T1 sequence (P05164 49-745)
Protocol: In a 96 well plate, 0.025 ml of 1.7 mg/ml MPO was combined with 0.00125 ml of 0.5% H2O2 and 3 mM PIC1 or sarcosine variant peptides in a total volume of 0.125 ml PBS and left to incubate at room temperature for 2 minutes. Using a 96 well plate reader, the wells were scanned for absorbance from 300–550 nm to generate curves reflecting the iron state in the MPO heme ring, as previously reported.
We then evaluated the ability of the variants to prevent degradation of the heme ring in the MPO molecule. […] This can be evaluated via spectrometric measurements of absorption of wavelengths from 300–550 nm. Absorption measurements were made over this spectrum for all variants (Fig 3A–3H). […] The heme ring preservation for these two variants was greater than that for the parent compound, PA-dPEG24.
Fig 3 Sarcosine variant protection of MPO heme ring from oxidative degradation. Absorbance spectra for the heme ring is shown in the absence of hydrogen peroxide (MPO) in red, in the presence of hydrogen peroxide (MPO+H2O2) in black, in the presence of peptide in blue, and in the presence of hydrogen peroxide and peptide together in green. […] B-H) Peptides A2 – C9,10 are denoted in the legends. Peptides were tested at a concentration of 3.0 mM.

## CC[C@H](C)[C@H](N)C(=O)N[C@@H](C)C(=O)N[C@@H](CC(C)C)C(=O)N[C@H](C(=O)N[C@@H](CC(C)C)C(=O)N[C@@H](CCC(=O)O)C(=O)N1CCC[C@H]1C(=O)N(C)CC(=O)N[C@@H](CS)C(=O)N[C@@H](CS)C(=O)N[C@@H](CCC(N)=O)C(=O)N[C@@H](CCC(=O)O)C(=O)N[C@@H](CCCNC(=N)N)C(=O)N[C@@H](C)C(=O)N[C@@H](C)C(=O)O)[C@@H](C)CC [I8]
[1]; Avg of n = 4, concentration basis of PIC1 not stated
  ABO hemolysis: 13.50 % of Control
[1]
  inhibition of ABO incompatible hemolysis (in words): to a greater extent than did the PA-dPEG24
[1]; equimolar basis, P < 0.002
  decrease of ABO hemolysis more than PA-dPEG24: 53%
[2]
  inhibition of hemolysis more than PA-dPEG24: 75%
[3]
  MPO inhibition (in words): greatest potency
[4]
  protection of MPO heme ring from degradation (in words): near perfect preservation
